Test results taken from ChEMBL document CHEMBL6121069, “A Medicinal Chemistry Perspective on Protein Tyrosine Phosphatase Nonreceptor Type 2 in Tumor Immunology” (J Med Chem, 2025).
*1 amine or outer side, *2 acyl side, *3 side chain or, on linkers, in order; H or OH if unused. Where a SMILES comes first, the peptide text is derived from it. [ ]: non-standard residue; d: D form. The star is where a group is joined. NHCH2(1,3-C6H4)CH2CO = O=C(Cc1cccc(CN[*:1])c1)[*:2]; F2Pmp = N[C@@H](Cc1ccc(C(F)(F)P(=O)(O)O)cc1)C(=O)O; Phenylacetyl(4-OH,3-OMe) = COc1cc(CC(=O)*)ccc1O; Benzoyl(3-Br,4-Me) = Cc1ccc(C(=O)*)cc1Br; X1 = Cc1ncsc1-c1ccc([C@H](C)N*)cc1; Hyp = O=C(O)[C@@H]1C[C@@H](O)CN1; Tle = CC(C)(C)[C@H](N)C(=O)O

How the values were obtained:
[1] = target: T1, Tyrosine-protein phosphatase non-receptor type 1 (Homo sapiens, UniProt P18031)
T1 sequence (P18031 whole entry): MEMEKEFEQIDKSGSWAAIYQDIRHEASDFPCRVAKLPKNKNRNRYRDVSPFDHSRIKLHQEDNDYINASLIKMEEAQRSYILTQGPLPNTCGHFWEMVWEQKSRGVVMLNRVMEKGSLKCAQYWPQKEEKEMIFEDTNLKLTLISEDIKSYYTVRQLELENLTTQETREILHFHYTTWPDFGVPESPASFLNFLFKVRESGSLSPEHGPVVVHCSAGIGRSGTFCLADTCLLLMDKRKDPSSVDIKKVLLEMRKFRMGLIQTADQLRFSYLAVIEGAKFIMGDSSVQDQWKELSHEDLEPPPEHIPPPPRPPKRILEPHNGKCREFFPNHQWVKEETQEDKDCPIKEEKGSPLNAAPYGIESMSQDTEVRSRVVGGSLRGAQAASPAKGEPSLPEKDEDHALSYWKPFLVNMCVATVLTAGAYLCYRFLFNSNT
Description: Inhibition of PTP1B (unknown origin)

B16-F10 [2] = experiment: cells; settings: Mus musculus
Description: Antiproliferative activity against mouse B16-F10 cells

[3] = target: T2, Tyrosine-protein phosphatase non-receptor type 2 (Homo sapiens, UniProt P17706)
T2 sequence (P17706 whole entry): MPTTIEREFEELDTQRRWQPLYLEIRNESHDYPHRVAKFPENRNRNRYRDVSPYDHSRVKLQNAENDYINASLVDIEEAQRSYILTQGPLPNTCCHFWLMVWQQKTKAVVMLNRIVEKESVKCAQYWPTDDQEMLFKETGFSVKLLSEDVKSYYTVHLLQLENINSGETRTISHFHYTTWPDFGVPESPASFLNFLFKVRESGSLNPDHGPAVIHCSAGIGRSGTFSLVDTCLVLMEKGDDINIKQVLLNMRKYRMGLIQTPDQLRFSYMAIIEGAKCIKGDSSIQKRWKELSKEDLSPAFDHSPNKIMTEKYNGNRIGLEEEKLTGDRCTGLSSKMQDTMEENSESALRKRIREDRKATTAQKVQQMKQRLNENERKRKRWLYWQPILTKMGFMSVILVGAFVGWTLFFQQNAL
Description: Binding affinity to PTPN2 (unknown origin) assessed as inhibition constant

[4] = target: T2, Tyrosine-protein phosphatase non-receptor type 2; remark: listed apart in the source
Description: Inhibition of PTPN2 (unknown origin)

B16-F10 [5] = experiment: cells; settings: Mus musculus; remark: listed apart in the source
Description: Antiproliferative activity against mouse B16-F10 cells assessed as inhibition of cell growth

[6] = target: Protein cereblon/Tyrosine-protein phosphatase non-receptor type 2 (Homo sapiens, UniProt P17706+Q96SW2); settings: hek293t
Protein cereblon/Tyrosine-protein phosphatase non-receptor type 2, sequence (Q96SW2 whole entry, one chain of several): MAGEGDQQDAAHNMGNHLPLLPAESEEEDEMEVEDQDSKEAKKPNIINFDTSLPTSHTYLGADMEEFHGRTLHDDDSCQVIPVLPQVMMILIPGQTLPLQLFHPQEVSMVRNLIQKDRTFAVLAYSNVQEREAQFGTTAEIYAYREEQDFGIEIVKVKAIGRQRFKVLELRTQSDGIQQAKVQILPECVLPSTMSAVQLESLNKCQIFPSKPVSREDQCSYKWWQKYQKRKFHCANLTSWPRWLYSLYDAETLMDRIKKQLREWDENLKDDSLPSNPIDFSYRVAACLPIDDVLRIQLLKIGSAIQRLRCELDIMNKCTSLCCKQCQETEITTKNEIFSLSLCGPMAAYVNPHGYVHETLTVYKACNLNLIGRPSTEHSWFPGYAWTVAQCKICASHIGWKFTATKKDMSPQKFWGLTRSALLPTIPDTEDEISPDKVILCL
Description: PROTAC activity at PTPN2/CRBN in HEK293T cells assessed as protein degradation measured for 48 hrs by Western blot analysis

O=P(O)(O)C(F)(F)c1ccc(CC(Cc2ccc(-c3ccccc3)cc2)(c2ccccc2)n2nnc3ccccc32)cc1 (centres undefined)
IC50 [1]: 40 nM

CC1Cc2c(cc(O)c(N3CC(=O)NS3(=O)=O)c2F)CCN1 (centres undefined)
IC50 (B16-F10 [2]): 270 nM

O=C1CN(c2c(O)cc3c(c2F)CCNCC3)S(=O)(=O)N1
IC50 (B16-F10 [2]): 350 nM

CC1CCN=C(Nc2cc(O)c(N3CC(=O)NS3(=O)=O)c(F)c2)N1 (centres undefined)
Ki [3]: 5 nM
IC50 (B16-F10 [2]): 5000 nM

O=C1CN(c2c(O)cc(NC(=O)NC3CCCCC3)cc2F)S(=O)(=O)N1
IC50 (B16-F10 [2]): < 5000 nM

CC(C)CCN[C@@H]1C[C@H]2C[C@@H]1c1c2cc(O)c(N2CC(=O)NS2(=O)=O)c1F
IC50 (B16-F10 [2]): 7820 nM

O=C1SN(CCOc2ccc([N+](=O)[O-])cc2)CN1Cc1ccccc1
IC50 [4]: 1510 nM

O=C1CN(c2c(O)cc(CC3CCCCNC3)cc2F)S(=O)(=O)N1 (centres undefined)
IC50 (B16-F10 [5]): > 100000 nM

CCN1CN(Cc2ccc(Br)cc2)C(=O)S1
IC50 [4]: 520 nM

CC(C)CCn1cc(-c2ccc(O)c(N3CC(=O)NS3(=O)=O)c2F)cn1
IC50 [4]: < 1000 nM

COc1ccc2cc(O)c(N3CC(=O)NS3(=O)=O)c(F)c2n1
IC50 [4]: < 1000 nM

Cn1c(=O)n(C2CCC(=O)NC2=O)c2cccc(C3CCN(C(=O)c4ccc5c(F)c(N6CC(=O)NS6(=O)=O)c(O)cc5c4)CC3)c21 (centres undefined)
DC50 [6]: 10 nM

Cc1nn(CC(=O)Nc2ccc3c(F)c(N4CC(=O)NS4(=O)=O)c(O)cc3c2)c(C)c1-c1ccc2c(c1)n(C)c(=O)n2C1CCC(=O)NC1=O (centres undefined)
DC50 [6]: < 50 nM

CC(C)CCCc1cc2c(F)c(N3CC(=O)NS3(=O)=O)c(O)cc2n(C)c1=O
IC50 [4]: < 1000 nM

O=C1CN(c2c(O)cc3c(c2F)C[C@H](NCCC2CCC2)CC3)S(=O)(=O)N1
IC50 (B16-F10 [2]): < 1000 nM

Cc1ccnc(Nc2cc(O)c(N3CC(=O)NS3(=O)=O)c(F)c2)n1
Ki [3]: ≥ 100 nM
IC50 (B16-F10 [2]): ≥ 100000 nM

Cc1ccc(NCc2cc(O)c(N3CC(=O)NS3(=O)=O)c(F)c2)nn1
IC50 (B16-F10 [2]): 630 nM

CC(C)CCN1CCC(Cc2cc(O)c(N3CC(=O)NS3(=O)=O)c(F)c2)C1 (centres undefined)
IC50 (B16-F10 [5]): 8430 nM

CCN[C@@H]1CCc2cc(O)c(N3CC(=O)NS3(=O)=O)c(F)c2CC1
IC50 (B16-F10 [2]): 54000 nM

O=C1CN(c2c(O)cc3c(c2F)CNCCC3)S(=O)(=O)N1
IC50 [4]: 1910 nM

CC(C)CCN[C@@H]1CNc2cc(O)c(N3CC(=O)NS3(=O)=O)c(F)c2C1
IC50 (B16-F10 [2]): 1450 nM

O=C1SN(CCN2CCN(Cc3ccc4c(c3)OCO4)CC2)CN1Cc1ccccc1
IC50 [4]: 5290 nM

COc1ccc(-c2ccc[nH]2)cc1N1CC(=O)NS1(=O)=O
IC50 [1]: 80 nM

Cc1ccnc(NCc2cc(F)c(N3CC(=O)NS3(=O)=O)c3[nH]ncc23)c1
IC50 (B16-F10 [2]): 350 nM

CC(C)CCc1ccc2ccc(N3CC(=O)NS3(=O)=O)cc2n1
IC50 [4]: > 10000 nM

CC(C)CCn1cnc(-c2ccc(O)c(N3CC(=O)NS3(=O)=O)c2F)c1
IC50 [4]: < 1000 nM

CC(C)CCc1ccc2cc(O)c(N3CC(=O)NS3(=O)=O)cc2n1
IC50 [4]: < 1000 nM

O=C(CCOCCn1cc(C2(Nc3cccc4c3C(=O)N(C3CCC(=O)NC3=O)C4=O)CC2)nn1)NCCOc1ccc2cc(O)c(N3CC(=O)NS3(=O)=O)c(F)c2c1 (centres undefined)
DC50 [6]: > 1000 nM

O=C1CN(c2c(O)cc(CC3CCCNC3)cc2F)S(=O)(=O)N1 (centres undefined)
IC50 (B16-F10 [5]): 25800 nM

CCN1CCc2cc(O)c(N3CC(=O)NS3(=O)=O)c(F)c2CC1C (centres undefined)
IC50 [4]: 212 nM

Cn1c(=O)n(C2CCC(=O)NC2=O)c2cccc(C3CCN(CCOCCC(=O)NCCOc4ccc5cc(O)c(N6CC(=O)NS6(=O)=O)c(F)c5c4)CC3)c21 (centres undefined)
DC50 [6]: > 1000 nM

O=C1CN(c2c(O)cc3c(c2F)C[C@H](NCCC2CCCC2)CC3)S(=O)(=O)N1
IC50 (B16-F10 [2]): < 50 nM

O=C1CN(c2c(O)cc(NC3=NCCCN3)cc2F)S(=O)(=O)N1
Ki [3]: 5 nM
IC50 (B16-F10 [2]): < 5000 nM

O=C(O)CN1CCN(CCN2CN(Cc3ccccc3)C(=O)S2)CC1
IC50 [4]: 8770 nM

CC(C)CCn1cnc2cc(O)c(N3CC(=O)NS3(=O)=O)c(F)c2c1=O
IC50 [4]: > 10000 nM

CC(C)CCn1ccc(-c2ccc(O)c(N3CC(=O)NS3(=O)=O)c2F)n1
IC50 [4]: < 1000 nM

O=C1CN(c2c(O)cc(CC3CCN(CC4CC4)C3)cc2F)S(=O)(=O)N1 (centres undefined)
IC50 (B16-F10 [5]): 17400 nM

CC(C)CCn1ccc(-c2ccc(O)c(N3CC(=O)NS3(=O)=O)c2F)c1
IC50 [4]: < 1000 nM

CCN1CN(Cc2ccc(Cl)cc2)C(=O)S1
IC50 [4]: 330 nM

O=C1CN(c2c(O)cc(CC3CCCN(CC4CC4)C3)cc2F)S(=O)(=O)N1 (centres undefined)
IC50 (B16-F10 [5]): > 46400 nM

CC(C)N1CCN(CCN2CN(Cc3ccccc3)C(=O)S2)CC1
IC50 [4]: 7100 nM

CCN1CN(Cc2ccc(I)cc2)C(=O)S1
IC50 [4]: 370 nM

COc1ccnc(NCc2cc(O)c(N3CC(=O)NS3(=O)=O)c(F)c2)c1
IC50 (B16-F10 [2]): 140 nM

CC(C)CCNC(=O)Nc1cc(O)c(N2CC(=O)NS2(=O)=O)c(F)c1
IC50 [4]: 5 nM
IC50 (B16-F10 [2]): < 5000 nM

COc1cc(C)nc(NCc2cc(O)c(N3CC(=O)NS3(=O)=O)c(F)c2)c1
IC50 (B16-F10 [2]): 50 nM

CC(C)Cc1cnc(Nc2cc(O)c(N3CC(=O)NS3(=O)=O)c(F)c2)nc1O
Ki [3]: < 1 nM
IC50 (B16-F10 [2]): 5000 nM

Cc1cnc(Nc2cc(O)c(N3CC(=O)NS3(=O)=O)c(F)c2)nc1O
Ki [3]: < 1 nM
IC50 (B16-F10 [2]): 50000 nM

CC1(C)CCC(NCc2cc(O)c(N3CC(=O)NS3(=O)=O)c(F)c2)CC1
IC50 (B16-F10 [2]): 81000 nM

CC(C)CCN1CCCC(Cc2cc(O)c(N3CC(=O)NS3(=O)=O)c(F)c2)C1 (centres undefined)
IC50 (B16-F10 [5]): > 100000 nM

CC(C)CCc1ccc2cc(O)c(N3CC(=O)NS3(=O)=O)c(F)c2n1
IC50 [4]: < 1000 nM

O=C1CN(c2c(O)cc(CC3CCNC3)cc2F)S(=O)(=O)N1 (centres undefined)
IC50 (B16-F10 [5]): 7430 nM

O=C1CN(c2c(O)cc3c(c2F)C[C@H](NCCC2CC2)CC3)S(=O)(=O)N1
IC50 (B16-F10 [2]): 220 nM

CCN1CN(Cc2ccc(F)cc2)C(=O)S1
IC50 [4]: 280 nM

COc1cccc(NCc2cc(O)c(N3CC(=O)NS3(=O)=O)c(F)c2)n1
IC50 (B16-F10 [2]): 8660 nM

COc1cc(C)nc(NCc2cc(F)c(N3CC(=O)NS3(=O)=O)c3[nH]ncc23)c1
IC50 (B16-F10 [2]): 20 nM

N[C@@H]1CCc2cc(O)c(N3CC(=O)NS3(=O)=O)c(F)c2CC1
IC50 [4]: 5.67 nM
IC50 (B16-F10 [2]): 1630 nM

O=C1CN(c2c(O)cc3c(c2F)C[C@H](NCCC(F)F)CC3)S(=O)(=O)N1
IC50 [4]: 1 nM
IC50 (B16-F10 [2]): 1500 nM

CC(C)CCn1ccc2cc(O)c(N3CC(=O)NS3(=O)=O)c(F)c2c1=O
IC50 [4]: > 1000 nM

O=C1CN(c2c(O)cc3c(c2F)C[C@H](NCCCC(F)(F)F)CC3)S(=O)(=O)N1
IC50 [4]: 1 nM
IC50 (B16-F10 [2]): < 50 nM

CC1(C)CCC(NCc2ccc(O)c(N3CC(=O)NS3(=O)=O)c2F)CC1
IC50 [4]: 10000 nM

CC(C)CCOc1ccc2cc(O)c(N3CC(=O)NS3(=O)=O)c(F)c2n1
IC50 [4]: < 1000 nM

Cn1c(=O)n(C2CCC(=O)NC2=O)c2ccc(C3CCN(C(=O)CNc4ccc5c(F)c(N6CC(=O)NS6(=O)=O)c(O)cc5c4)CC3F)cc21 (centres undefined)
DC50 [6]: < 10 nM

CC(C)CCn1cc(-c2ccc(O)c(N3CC(=O)NS3(=O)=O)c2F)nn1
IC50 [4]: < 1000 nM

Cc1cc(O)nc(Nc2cc(O)c(N3CC(=O)NS3(=O)=O)c(F)c2)n1
Ki [3]: 1 nM
IC50 (B16-F10 [2]): < 5000 nM

CN(Cc1cc(O)c(N2CC(=O)NS2(=O)=O)c(F)c1)C1CCC(C)(C)CC1
IC50 [4]: 50 nM
IC50 (B16-F10 [2]): 14900 nM

O=C1CN(c2c(O)cc(NC(=O)N[C@H](CO)c3ccccc3)cc2F)S(=O)(=O)N1 (racemic)
IC50 [4]: 5 nM
IC50 (B16-F10 [2]): < 5000 nM

COc1cc(CC(=O)N[C@@H](Cc2ccccc2)C(=O)N[C@@H](Cc2ccc(C(F)(F)P(=O)(O)O)cc2)C(=O)N[C@@H](CCCCNC(=O)c2ccc(C)c(Br)c2)C(=O)NCc2cccc(CC(=O)N[C@H](C(=O)N3C[C@H](O)C[C@H]3C(=O)N[C@@H](C)c3ccc(-c4scnc4C)cc3)C(C)(C)C)c2)ccc1O ({Phenylacetyl(4-OH,3-OMe)}-F[F2Pmp]K(Benzoyl(3-Br,4-Me))[NHCH2(1,3-C6H4)CH2CO][Tle][Hyp]-X1)
DC50 [6]: 4.8 nM
